Reference: publication PMC3689638, “Cell cycle-dependent activity of the novel dual PI3K-MTORC1/2 inhibitor NVP-BGT226 in acute leukemia” (Molecular Cancer, 2013)
Read-outs that look alike come from different tables or passages of the source.

Columns and labels:
Ba/F3 KIT WT [1] = experiment: Inhibition of proliferation (XTT), isogenic Ba/F3 model; format: cell-based, murine; conditions: Mus musculus
Method: (§1) FLT3 S451F cDNA cloned into a pCMVneo plasmid vector [53] was generously provided by Dr. Fröhling, University of Ulm, Germany. KIT wildtype cDNA cloned into a pJP1563 plasmid vector was obtained from the DNASU Plasmid Repository at the Biodesign Institute of the Arizona State University (ASU). Lipofection transfection into the parental Ba/F3 cell line was performed to stably express KIT wildtype or mutant FLT3 S451F by double selection for neomycin (pCMVneo plasmid), blasticidin (pJP1563 plasmid) or […] (G418; all other plasmids) resistance and IL-3-independent growth. The Ba/F3 KIT wildtype cell line was cultured using recombinant human stem cell factor (SCF/KIT Ligand, R&D, Minneapolis, MN) as a growth supplement.

Ba/F3 FLT3 N841H [2] = experiment: as above; format: cell-based, murine; conditions: Mus musculus
Ba/F3 FLT3 K663Q [3] = experiment: as above; format: cell-based, murine; conditions: Mus musculus
Ba/F3 KIT D816Y [4] = experiment: as above; format: cell-based, murine; conditions: Mus musculus
Ba/F3 BCR/ABL1 [5] = experiment: as above; format: cell-based, murine; conditions: Mus musculus
Ba/F3 KIT D816Y [6] = experiment: Induction of apoptosis, isogenic Ba/F3 model; format: cell-based, murine
Method: (§2) Translocation of phosphatidylserine from the inner to the outer leaflet of the plasma membrane as an early indicator of apoptosis was analyzed using an Annexin V-based assay (Immunotech, Marseilles, France) and a FACScalibur® flow cytometer loaded with CellQuest® analysis software (BD, Heidelberg, Germany).

Ba/F3 Parental (w/ IL3) [7] = experiment: Induction of apoptosis, isogenic Ba/F3 model; format: cell-based, murine
Method: as §2

Ba/F3 KIT D816V = experiment: Induction of apoptosis, isogenic Ba/F3 model; format: cell-based, murine
Method: as §2

Ba/F3 BCR/ABL1 [8] = experiment: Induction of apoptosis, isogenic Ba/F3 model; format: cell-based, murine
Method: as §2

Ba/F3 FLT3 N841H [9] = experiment: Induction of apoptosis, isogenic Ba/F3 model; format: cell-based, murine
Method: as §2

Ba/F3 KIT D816F = experiment: Induction of apoptosis, isogenic Ba/F3 model; format: cell-based, murine
Method: as §2

Ba/F3 FLT3 WT = experiment: Induction of apoptosis, isogenic Ba/F3 model; format: cell-based, murine
Method: as §2

Ba/F3 FLT3 K663Q [10] = experiment: Induction of apoptosis, isogenic Ba/F3 model; format: cell-based, murine
Method: as §2

Ba/F3 FLT3 D835Y [11] = experiment: Induction of apoptosis, isogenic Ba/F3 model; format: cell-based, murine
Method: as §2

Ba/F3 FLT3 ITD = experiment: Induction of apoptosis, isogenic Ba/F3 model; format: cell-based, murine
Method: as §2

[12] = tested on: mononuclear cells of a bone marrow donor; experiment: XTT-based proliferation assay, donor mononuclear cells ex vivo
Method: Bone marrow aspirate and peripheral blood samples from consented patients with acute leukemia as well as samples from healthy blood and bone marrow donors were collected in 5000 U heparin with the approval of the ethics committee of the Medical Faculties of the University of Tübingen or the University of Ulm. Mononuclear cells were isolated by Ficoll-Hypaque density gradient fractionation. Cells were cultured in DMEM medium, supplemented with 20% fetal bovine serum (GIBCO/Invitrogen, Darmstadt, Germany or Biochrom AG, Berlin, Germany), 1% penicillin G (10,000 units/mL), and streptomycin (10,000 μg/mg) and 2 mmol/L L-glutamine.

MOLM14 cells (FLT3 ITD) = experiment: annexin V-based apoptosis assay, MOLM14; format: cell-based; conditions: Homo sapiens, MOLM-14, read-out: IC50 induction of apoptosis
Method: as §2

Ba/F3 FLT3 S451F = experiment: Induction of apoptosis, isogenic Ba/F3 model; format: cell-based, murine
Method: as §1, §2

Ba/F3 KIT WT [13] = experiment: Induction of apoptosis, isogenic Ba/F3 model; format: cell-based, murine
Method: as §1, §2

MOLM14 cells = experiment: cell cycle analysis by PI-stain flow cytometry, MOLM14; format: cell-based, human; conditions: 500 nM, 72h
Method: Accumulation of cells in the G1/G0, S or G2/M phases was monitored 6, 24 and 72 hours after application of either agent.
A propidium iodide-based flow cytometry assay was assessed as described previously. In short, a propidium iodide stain assay is used to segregate cells according to the DNA content, which is graphically shown in a histogram plot (high content in G2/M, intermediate content in S-phase, low content in G1/G0 and lowest content in dead/apoptotic cells, which defines a sub-G1/G0 fraction),

Ba/F3 Parental (w/ IL3) [14] = experiment: Inhibition of proliferation (XTT), isogenic Ba/F3 model; format: cell-based, murine
[15] = as above; format: cell-based, murine; conditions: mouse, Ba/F3 parental cells (with IL3), Ba/F3 Parental (w/ IL3)
[16] = tested on: native mononuclear cells derived from bone marrow donors; experiment: Annexin V/PI apoptosis assay, donor mononuclear cells ex vivo; format: cell-based, human; conditions: Homo sapiens
Method: However, this observation will need prospective verification on a larger patient cohort.
as §2

Jurkat cells = experiment: XTT-based cellular proliferation assay, Jurkat; format: cell-based; conditions: Homo sapiens, read-out: IC50 cellular proliferation (linear regression analysis)
Ba/F3 FLT3 D835Y [17] = experiment: Inhibition of proliferation (XTT), isogenic Ba/F3 model; format: cell-based, murine; conditions: Mus musculus
[18] = BaF3, 10 nM, read-out: Inhibition of proliferation At 10 nM (% alive)
[19] = BaF3, 100 nM, read-out: Inhibition of proliferation At 100 nM (% alive)
[20] = Mus musculus, BaF3, not reached = > 5 000 nM

In the case of `COc1ccc(-c2ccc3ncc4c(c3c2)n(-c2ccc(N3CCNCC3)c(C(F)(F)F)c2)c(=O)n4C)cn1` [NVP-BGT226], the IC50 (Ba/F3 KIT WT [1]; BaF3) is reported as 6 nM, the viability at 0.01 µM (Ba/F3 KIT WT [1]; [18]) is reported as 24% and the viability at 0.1 µM (Ba/F3 KIT WT [1]; [19]) is reported as 13%. The IC50 (Ba/F3 FLT3 N841H [2]; BaF3) was 89 nM, the viability at 0.01 µM (Ba/F3 FLT3 N841H [2]; [18]) was 110% and the viability at 0.1 µM (Ba/F3 FLT3 N841H [2]; [19]) was 38%. It also gave an IC50 (Ba/F3 FLT3 K663Q [3]; BaF3) of 277 nM, a viability at 0.01 µM (Ba/F3 FLT3 K663Q [3]; [18]) of 79% and a viability at 0.1 µM (Ba/F3 FLT3 K663Q [3]; [19]) of 52%. For the same compound, the IC50 (Ba/F3 KIT D816Y [4]; BaF3) was 65 nM, the viability at 0.01 µM (Ba/F3 KIT D816Y [4]; [18]) was 112% and the viability at 0.1 µM (Ba/F3 KIT D816Y [4]; [19]) was 26%. The IC50 (Ba/F3 BCR/ABL1 [5]; BaF3) was 183 nM, the viability at 0.01 µM (Ba/F3 BCR/ABL1 [5]; [18]) was 73% and the viability at 0.1 µM (Ba/F3 BCR/ABL1 [5]; [19]) was 52%. For the same compound, the “Induction of apoptosis At 1000 nM (% apopt.)” value (Ba/F3 KIT D816Y [6]; 1000 nM) was 89%, the “Induction of apoptosis At 5000 nM (% apopt.)” value (Ba/F3 KIT D816Y [6]; 5000 nM) was 96% and the IC50 (Ba/F3 KIT D816Y [6]; Mus musculus, BaF3) was 118 nM. For the same compound, the “Induction of apoptosis At 1000 nM (% apopt.)” value (Ba/F3 Parental (w/ IL3) [7]; 1000 nM) was 7%, the “Induction of apoptosis At 5000 nM (% apopt.)” value (Ba/F3 Parental (w/ IL3) [7]; 5000 nM) was 99% and the IC50 (Ba/F3 Parental (w/ IL3) [7]; [20]) was 1820 nM. For the same compound, the “Induction of apoptosis At 1000 nM (% apopt.)” value (Ba/F3 KIT D816V; 1000 nM) was 7%, the “Induction of apoptosis At 5000 nM (% apopt.)” value (Ba/F3 KIT D816V; 5000 nM) was 99% and the IC50 (Ba/F3 KIT D816V; [20]) was 1790 nM. For the same compound, the “Induction of apoptosis At 1000 nM (% apopt.)” value (Ba/F3 BCR/ABL1 [8]; 1000 nM) was 56%, the “Induction of apoptosis At 5000 nM (% apopt.)” value (Ba/F3 BCR/ABL1 [8]; 5000 nM) was 97% and the IC50 (Ba/F3 BCR/ABL1 [8]; [20]) was 262 nM. The “Induction of apoptosis At 1000 nM (% apopt.)” value (Ba/F3 FLT3 N841H [9]; 1000 nM) was 18%, the “Induction of apoptosis At 5000 nM (% apopt.)” value (Ba/F3 FLT3 N841H [9]; 5000 nM) was 99% and the IC50 (Ba/F3 FLT3 N841H [9]; [20]) was 1210 nM. The “Induction of apoptosis At 1000 nM (% apopt.)” value (Ba/F3 KIT D816F; 1000 nM) was 87%, the “Induction of apoptosis At 5000 nM (% apopt.)” value (Ba/F3 KIT D816F; 5000 nM) was 89% and the IC50 (Ba/F3 KIT D816F; Mus musculus, BaF3) was 258 nM. For the same compound, the “Induction of apoptosis At 1000 nM (% apopt.)” value (Ba/F3 FLT3 WT; 1000 nM) was 41%, the “Induction of apoptosis At 5000 nM (% apopt.)” value (Ba/F3 FLT3 WT; 5000 nM) was 99% and the IC50 (Ba/F3 FLT3 WT; Mus musculus, BaF3) was 345 nM. For the same compound, the “Induction of apoptosis At 1000 nM (% apopt.)” value (Ba/F3 FLT3 K663Q [10]; 1000 nM) was 26%, the “Induction of apoptosis At 5000 nM (% apopt.)” value (Ba/F3 FLT3 K663Q [10]; 5000 nM) was 98% and the IC50 (Ba/F3 FLT3 K663Q [10]; [20]) was 1110 nM. For the same compound, the “Induction of apoptosis At 1000 nM (% apopt.)” value (Ba/F3 FLT3 D835Y [11]; 1000 nM) was 33%, the “Induction of apoptosis At 5000 nM (% apopt.)” value (Ba/F3 FLT3 D835Y [11]; 5000 nM) was 98% and the IC50 (Ba/F3 FLT3 D835Y [11]; [20]) was 1070 nM. For the same compound, the “Induction of apoptosis At 1000 nM (% apopt.)” value (Ba/F3 FLT3 ITD; 1000 nM) was 38%, the “Induction of apoptosis At 5000 nM (% apopt.)” value (Ba/F3 FLT3 ITD; 5000 nM) was 98% and the IC50 (Ba/F3 FLT3 ITD; Mus musculus, not reached = > 5 000 nM) was 1080 nM. For the same compound, the IC50 ([12]; Homo sapiens, read-out: Proliferation IC50, Pt. Nr. 552 (donor), bone marrow donor, ex vivo) was greater than 1000 nM, the IC50 ([12]; read-out: Proliferation IC50, Pt. Nr. 552 (donor), bone marrow donor, ex vivo, listed as BFT226) was 1080 nM and the IC50 (MOLM14 cells (FLT3 ITD)) was 638 nM. For the same compound, the “Induction of apoptosis At 1000 nM (% apopt.)” value (Ba/F3 FLT3 S451F; 1000 nM) was 93%, the “Induction of apoptosis At 5000 nM (% apopt.)” value (Ba/F3 FLT3 S451F; 5000 nM) was 99% and the IC50 (Ba/F3 FLT3 S451F; Mus musculus, BaF3) was 125 nM. For the same compound, the “Induction of apoptosis At 1000 nM (% apopt.)” value (Ba/F3 KIT WT [13]; 1000 nM) was 48%, the “Induction of apoptosis At 5000 nM (% apopt.)” value (Ba/F3 KIT WT [13]; 5000 nM) was 97% and the IC50 (Ba/F3 KIT WT [13]; Mus musculus, BaF3) was 463 nM. The sub-G1 (MOLM14 cells) was 50%, the IC50 (Ba/F3 Parental (w/ IL3) [14]; Ba/F3 Parental (w/ IL3)) was 828 nM and the IC50 (Ba/F3 Parental (w/ IL3) [14]; Mus musculus, BaF3, Ba/F3 Parental (w/ IL3)) was roughly 800 nM. It also gave a viability at 0.01 µM ([15]; 10 nM, read-out: Inhibition of proliferation At 10 nM (% alive)) of 100%, a viability at 0.1 µM ([15]; 100 nM, read-out: Inhibition of proliferation At 100 nM (% alive)) of 86% and an IC50 ([16]; Pt. Nr. 538 (donor)) of 1780 nM. The IC50 ([16]; Pt. Nr. 554 (donor)) was 3810 nM, the IC50 (Jurkat cells) was 59 nM and the IC50 (Ba/F3 FLT3 D835Y [17]; BaF3) was 35 nM. For the same compound, the viability at 0.01 µM (Ba/F3 FLT3 D835Y [17]; [18]) was 65% and the viability at 0.1 µM (Ba/F3 FLT3 D835Y [17]; [19]) was 33%.
